Results as given in patent publication US6896895B2, “Carotenoid esters, carotenoid-enriched feeds, and methods of pigmenting foods and foodstuffs” (DSM IP Assets B.V., priority 2000, dated 2005).
Blank lines part the entries; values can stand above or below the molecule they belong to.

Test: Carotenoid ester content in plasma, back skin and abdominal fat of broilers (HPLC)
Type: in vivo, broiler chickens (Ross 308, Ross 508)
Conditions: for concentrations determined as equivalents of the ethyl β-apo-8′-carotenoate, in the skin: in comparison to the other 12 tested carotenoid esters
Method in brief: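 Ross 308/508 broilers, raised on low-carotenoid basal diet (<2 mg xanthophylls/kg) to day 15 or 22, then fed pigment-supplemented diet for three weeks; plasma sampled day 42, back skin and abdominal fat pooled per group at slaughter on day 44. Carotenoid esters quantified by normal-phase HPLC (0.5% acetone in n-hexane) calibrated with all-E ethyl β-apo-8′-carotenoate; Z-isomers corrected by factor 1.4.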

[1] = average over doses, in relation to the controls (CAROPHYLL Yellow) of the same trial, Table 3
[2] = trial MC-11/99, 8.88 mg/kg feed
[3] = trial MC-11/99, 13.33 mg/kg feed
[4] = trial MC-24/99, 20 mg/kg feed, in relation to the controls of the same trial
[5] = trial MC-24/99, 30 mg/kg feed, in relation to the controls of the same trial

Analytical Content as Equivalent of Ethyl β-apo-8′-carotenoate Fat % [1]: 88%
Analytical Content as Equivalent of Ethyl β-apo-8′-carotenoate Plasma % [1]: 129%
Analytical Content as Equivalent of Ethyl β-apo-8′-carotenoate Skin % [1]: 134%
concentrations determined as equivalents of the ethyl β-apo-8′-carotenoate, in the skin: substantially higher
Analytical Content as Equivalent of Ethyl β-apo-8′-carotenoate Fat (trial MC-02/99, 10 mg/kg feed): 1.8 mg/kg
Analytical Content as Equivalent of Ethyl β-apo-8′-carotenoate Plasma (trial MC-02/99, 10 mg/kg feed): 6.3 mg/kg
Analytical Content as Equivalent of Ethyl β-apo-8′-carotenoate Skin (trial MC-02/99, 10 mg/kg feed): 2.0 mg/kg
Analytical Content as Equivalent of Ethyl β-apo-8′-carotenoate Fat (trial MC-02/99, 20 mg/kg feed): 3.3 mg/kg
Analytical Content as Equivalent of Ethyl β-apo-8′-carotenoate Plasma (trial MC-02/99, 20 mg/kg feed): 13.4 mg/kg
Analytical Content as Equivalent of Ethyl β-apo-8′-carotenoate Skin (trial MC-02/99, 20 mg/kg feed): 4.1 mg/kg
Analytical Content as Equivalent of Ethyl β-apo-8′-carotenoate Fat [2]: 1.2 mg/kg
Analytical Content as Equivalent of Ethyl β-apo-8′-carotenoate Plasma [2]: 6.0 mg/kg
Analytical Content as Equivalent of Ethyl β-apo-8′-carotenoate Skin [2]: 1.6 mg/kg
Analytical Content as Equivalent of Ethyl β-apo-8′-carotenoate Fat [3]: 1.9 mg/kg
Analytical Content as Equivalent of Ethyl β-apo-8′-carotenoate Plasma [3]: 8.6 mg/kg
Analytical Content as Equivalent of Ethyl β-apo-8′-carotenoate Skin [3]: 2.6 mg/kg
Analytical Content as Equivalent of Ethyl β-apo-8′-carotenoate Fat (trial MC-11/99, 20 mg/kg feed): 2.9 mg/kg
Analytical Content as Equivalent of Ethyl β-apo-8′-carotenoate Plasma (trial MC-11/99, 20 mg/kg feed): 13.3 mg/kg
Analytical Content as Equivalent of Ethyl β-apo-8′-carotenoate Skin (trial MC-11/99, 20 mg/kg feed): 3.7 mg/kg
Analytical Content as Equivalent of Ethyl β-apo-8′-carotenoate Fat (trial MC-11/99, 30 mg/kg feed): 3.4 mg/kg
Analytical Content as Equivalent of Ethyl β-apo-8′-carotenoate Plasma (trial MC-11/99, 30 mg/kg feed): 18.3 mg/kg
Analytical Content as Equivalent of Ethyl β-apo-8′-carotenoate Skin (trial MC-11/99, 30 mg/kg feed): 6.1 mg/kg
Analytical Content as Equivalent of Ethyl β-apo-8′-carotenoate Fat (trial MC-11/99, 45 mg/kg feed): 6.4 mg/kg
Analytical Content as Equivalent of Ethyl β-apo-8′-carotenoate Plasma (trial MC-11/99, 45 mg/kg feed): 30.6 mg/kg
Analytical Content as Equivalent of Ethyl β-apo-8′-carotenoate Skin (trial MC-11/99, 45 mg/kg feed): 9.0 mg/kg
Analytical Content as Equivalent of Ethyl β-apo-8′-carotenoate Fat (trial MC-24/98, 15 mg/kg feed): 2.3 mg/kg
Analytical Content as Equivalent of Ethyl β-apo-8′-carotenoate Plasma (trial MC-24/98, 15 mg/kg feed): 10.0 mg/kg
Analytical Content as Equivalent of Ethyl β-apo-8′-carotenoate Skin (trial MC-24/98, 15 mg/kg feed): 2.5 mg/kg
Analytical Content as Equivalent of Ethyl β-apo-8′-carotenoate Fat (trial MC-24/98, 30 mg/kg feed): 4.5 mg/kg
Analytical Content as Equivalent of Ethyl β-apo-8′-carotenoate Plasma (trial MC-24/98, 30 mg/kg feed): 19.9 mg/kg
Analytical Content as Equivalent of Ethyl β-apo-8′-carotenoate Skin (trial MC-24/98, 30 mg/kg feed): 5.6 mg/kg
Structure (SMILES): CC1=C(/C=C/C(C)=C/C=C/C(C)=C/C=C/C=C(C)/C=C/C=C(\C)C(=O)OC(C)C)C(C)(C)CCC1 [compound (17), isopropyl beta-apo-8′-carotenoate]

Analytical Content as Equivalent of Ethyl β-apo-8′-carotenoate Fat % [1]: 113%
Analytical Content as Equivalent of Ethyl β-apo-8′-carotenoate Plasma % [1]: 103%
Analytical Content as Equivalent of Ethyl β-apo-8′-carotenoate Skin % [1]: 198%
Analytical Content as Equivalent of Ethyl β-apo-8′-carotenoate Skin % (average over doses, in relation to the controls (CAROPHYLL Yellow) of the same trial, Table 3, listed as tert. Butyl β-apo-8′-carotenoate): 189%
concentrations determined as equivalents of the ethyl β-apo-8′-carotenoate, in the skin: substantially higher
Analytical Content as Equivalent of Ethyl β-apo-8′-carotenoate Fat (trial MC-24/99, 20 mg/kg feed): 3.7 mg/kg
Analytical Content as Equivalent of Ethyl β-apo-8′-carotenoate Plasma (trial MC-24/99, 20 mg/kg feed): 12.2 mg/kg
Analytical Content as Equivalent of Ethyl β-apo-8′-carotenoate Skin (trial MC-24/99, 20 mg/kg feed): 5.4 mg/kg
Analytical Content as Equivalent of Ethyl β-apo-8′-carotenoate Fat % [4]: 119%
Analytical Content as Equivalent of Ethyl β-apo-8′-carotenoate Plasma % [4]: 117%
Analytical Content as Equivalent of Ethyl β-apo-8′-carotenoate Skin % [4]: 194%
Analytical Content as Equivalent of Ethyl β-apo-8′-carotenoate Fat (trial MC-24/99, 30 mg/kg feed): 4.6 mg/kg
Analytical Content as Equivalent of Ethyl β-apo-8′-carotenoate Plasma (trial MC-24/99, 30 mg/kg feed): 14.1 mg/kg
Analytical Content as Equivalent of Ethyl β-apo-8′-carotenoate Skin (trial MC-24/99, 30 mg/kg feed): 6.4 mg/kg
Analytical Content as Equivalent of Ethyl β-apo-8′-carotenoate Fat % [5]: 107%
Analytical Content as Equivalent of Ethyl β-apo-8′-carotenoate Plasma % [5]: 88%
Analytical Content as Equivalent of Ethyl β-apo-8′-carotenoate Skin % [5]: 184%
Structure (SMILES): CC(C=CC=C(C)C=CC1=C(C)CCCC1(C)C)=CC=CC=C(C)C=CC=C(C)C(=O)OC(C)(C)C [compound (18), tert. butyl beta-apo-8′-carotenoate]

Analytical Content as Equivalent of Ethyl β-apo-8′-carotenoate Fat % [1]: 85%
Analytical Content as Equivalent of Ethyl β-apo-8′-carotenoate Plasma % [1]: 88%
Analytical Content as Equivalent of Ethyl β-apo-8′-carotenoate Skin % [1]: 134%
concentrations determined as equivalents of the ethyl β-apo-8′-carotenoate, in the skin: substantially higher
Analytical Content as Equivalent of Ethyl β-apo-8′-carotenoate Fat (trial MC-24/99, 20 mg/kg feed): 2.6 mg/kg
Analytical Content as Equivalent of Ethyl β-apo-8′-carotenoate Plasma (trial MC-24/99, 20 mg/kg feed): 9.6 mg/kg
Analytical Content as Equivalent of Ethyl β-apo-8′-carotenoate Skin (trial MC-24/99, 20 mg/kg feed): 3.6 mg/kg
Analytical Content as Equivalent of Ethyl β-apo-8′-carotenoate Fat % [4]: 83%
Analytical Content as Equivalent of Ethyl β-apo-8′-carotenoate Plasma % [4]: 93%
Analytical Content as Equivalent of Ethyl β-apo-8′-carotenoate Skin % [4]: 128%
Analytical Content as Equivalent of Ethyl β-apo-8′-carotenoate Fat (trial MC-24/99, 30 mg/kg feed): 3.8 mg/kg
Analytical Content as Equivalent of Ethyl β-apo-8′-carotenoate Plasma (trial MC-24/99, 30 mg/kg feed): 13.3 mg/kg
Analytical Content as Equivalent of Ethyl β-apo-8′-carotenoate Skin (trial MC-24/99, 30 mg/kg feed): 4.8 mg/kg
Analytical Content as Equivalent of Ethyl β-apo-8′-carotenoate Fat % [5]: 87%
Analytical Content as Equivalent of Ethyl β-apo-8′-carotenoate Plasma % [5]: 82%
Analytical Content as Equivalent of Ethyl β-apo-8′-carotenoate Skin % [5]: 139%
Structure (SMILES): CCCC(C)OC(=O)C(C)=CC=CC(C)=CC=CC=C(C)C=CC=C(C)C=CC1=C(C)CCCC1(C)C (stereo not drawn) [compound (19), 2-pentyl beta-apo-8′-carotenoate]
